Test systems include ACHN renal; BT-549 breast; HCT-116 colon; HCT-15 colon; HT29 colon; IGROV1 ovarian; MDA-MB-435; MOLT-4 leukemia; NCI-H226 lung; SNB-19 CNS.
Assay in all cases: inhibition of tumour cell growth, NCI panel, 48 h

Where “and” joins values, the source holds several entries; their conditions need not be identical. Equal entries are not always repeated.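 These data come from cells grown in 96-well plates and exposed to compound for 48 hours at five concentrations. Abbreviation: GI50, concentration required for 50% inhibition of growth. TGI: total growth inhibition.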

As for `COC(=O)[C@H](Cc1ccccc1)NC(=O)c1csc([C@@H](C[C@H](C(C)C)N(C)C(=O)[C@@H](NC(=O)[C@H]2CCCN2C)C2CC2)OC(C)=O)n1`, the GI50 is 1.44 µM with ACHN renal; 0.248 µM in the test with BT-549 breast; 0.138 µM in the test with HCT-116 colon; 0.855 µM with HCT-15 colon; 0.14 µM in the test on HT29 colon; 0.327 µM in the test on IGROV1 ovarian. Also, the GI50 in the test with MDA-MB-435 was 0.027 µM; with MOLT-4 leukemia, 0.215 µM; in the test on NCI-H226 lung, 3.93 µM; with SNB-19 CNS it was 0.943 µM. For the same molecule, the TGI with ACHN renal is greater than 33.3 µM; in the test on BT-549 breast it was 7.85 µM; in the test on HCT-116 colon, 21.4 µM; with HCT-15 colon, greater than 33.3 µM; in the test with HT29 colon it was greater than 33.3 µM; in the test on IGROV1 ovarian, greater than 33.3 µM. Also, the TGI with MDA-MB-435 was 0.191 µM; in the test on MOLT-4 leukemia it was greater than 33.3 µM; in the test on NCI-H226 lung, greater than 33.3 µM; in the test with SNB-19 CNS, greater than 33.3 µM.
Turning to `COc1ccc(C2ONC3=NCCN32)cc1` (stereo not drawn), the GI50 in the test with ACHN renal was 37.1 µM; with BT-549 breast, 94.1 µM; in the test with HCT-116 colon, 40.4 µM; in the test on HCT-15 colon, 29.2 µM; in the test with HT29 colon, 68.8 µM; in the test on IGROV1 ovarian, 73.2 µM. Also, the GI50 in the test with MDA-MB-435 was greater than 100 µM; with MOLT-4 leukemia, 37.1 µM; with NCI-H226 lung it was 61.4 µM; with SNB-19 CNS, greater than 100 µM. Besides, the TGI in the test on ACHN renal, in the test on BT-549 breast, with HCT-116 colon, in the test with HCT-15 colon, in the test on HT29 colon and in the test on IGROV1 ovarian was greater than 100 µM throughout. Moreover, the TGI with MDA-MB-435, in the test on MOLT-4 leukemia, in the test with NCI-H226 lung and with SNB-19 CNS was greater than 100 µM in each case.
On to `COc1ccc(/C=C(/C(=O)n2cnnn2)c2cc(OC)c(OC)c(OC)c2)cc1`, for which the GI50 in the test with ACHN renal was 6.87 µM; with BT-549 breast, 2.32 µM; with HCT-116 colon it was 3.08 µM; in the test on HCT-15 colon, 2.03 µM; in the test on HT29 colon it was 3.42 µM; in the test on IGROV1 ovarian it was 4.69 µM. Moreover, the GI50 with MDA-MB-435 is 0.614 µM; with MOLT-4 leukemia, 4.31 µM; with NCI-H226 lung, greater than 100 µM; in the test on SNB-19 CNS, 4.25 µM. The TGI with ACHN renal was greater than 100 µM; with BT-549 breast, 7.57 µM; in the test on HCT-116 colon, greater than 100 µM; in the test with HCT-15 colon, greater than 100 µM; in the test on HT29 colon it was greater than 100 µM; with IGROV1 ovarian, greater than 100 µM. The TGI in the test on MDA-MB-435 is 3.24 µM; in the test on MOLT-4 leukemia, greater than 100 µM; in the test with NCI-H226 lung, greater than 100 µM; with SNB-19 CNS, greater than 100 µM.
With `CC[C@H](C)[C@H](NC(=O)[C@H]1CCCCN1C)C(=O)N(C)[C@H](C[C@@H](OC(C)=O)c1nc(C(=O)N[C@@H](Cc2ccccc2)C[C@H](C)C(=O)OC)cs1)C(C)C`, the GI50 was 0.000773 µM and 0.0025 µM with ACHN renal; 0.000385 µM and < 0.0025 µM with BT-549 breast; 0.000357 µM with HCT-116 colon; 0.000332 µM and 0.0025 µM with HCT-15 colon; 0.000251 µM and < 0.0025 µM in the test on HT29 colon; 0.002 µM and 0.0025 µM in the test with IGROV1 ovarian. Besides, the GI50 is less than 0.0025 µM with MDA-MB-435; 0.00331 µM and 0.0025 µM in the test with MOLT-4 leukemia; 0.00234 µM and < 0.0025 µM in the test on NCI-H226 lung; 0.000431 µM and 0.0025 µM in the test with SNB-19 CNS. Besides, the TGI in the test with ACHN renal was greater than 25 µM; in the test on BT-549 breast it was 0.0169 µM and < 0.0025 µM; with HT29 colon, 0.0137 µM and < 0.0025 µM; in the test with IGROV1 ovarian it was greater than 25 µM; in the test on MDA-MB-435, less than 0.0025 µM; in the test on MOLT-4 leukemia, greater than 25 µM. In addition, the figures for the TGI with NCI-H226 lung and in the test with SNB-19 CNS were less than 0.0025 µM and greater than 25 µM, respectively.
Regarding `CCc1cccc(CC)c1/C=C/c1cncc(C(=O)NC)c1`, the GI50 was 22.1 µM in the test on ACHN renal; 8.95 µM in the test with BT-549 breast; 9.46 µM in the test on HCT-116 colon; 9.71 µM in the test with HCT-15 colon; 8.79 µM in the test on HT29 colon; greater than 21.7 µM in the test with IGROV1 ovarian. Further, the GI50 is 2.85 µM in the test on MDA-MB-435, 12.4 µM in the test on MOLT-4 leukemia, 17.2 µM with NCI-H226 lung and 19.7 µM in the test with SNB-19 CNS. The TGI with ACHN renal, with BT-549 breast, with HCT-116 colon, in the test on HCT-15 colon, in the test with HT29 colon and with IGROV1 ovarian was greater than 25 µM throughout. Also, the TGI was 10.5 µM in the test on MDA-MB-435, greater than 25 µM with MOLT-4 leukemia, greater than 25 µM in the test with NCI-H226 lung and greater than 25 µM in the test on SNB-19 CNS.
`CN(C)CCCC1(c2ccc(F)cc2)OCc2cc(-c3cncc4ccccc34)ccc21` (stereo not drawn): the GI50 with ACHN renal was 3.34 µM; with BT-549 breast, 7.45 µM; in the test with HCT-116 colon, 2.94 µM; in the test with HCT-15 colon, 3.32 µM; with HT29 colon it was 2.36 µM; with IGROV1 ovarian it was 2.88 µM. Besides, the GI50 is 1.71 µM in the test on MDA-MB-435, 2.39 µM in the test on MOLT-4 leukemia, 8.65 µM with NCI-H226 lung and 2.35 µM in the test on SNB-19 CNS. For the same molecule, the TGI in the test with ACHN renal is 12.5 µM; with BT-549 breast, 20.5 µM; with HCT-116 colon it was 11 µM; in the test with HCT-15 colon, 12.6 µM; in the test on HT29 colon, 8.23 µM; in the test with IGROV1 ovarian it was 12.2 µM. Also, the TGI in the test on MDA-MB-435 worked out at 3.22 µM; in the test on MOLT-4 leukemia, 6.7 µM; in the test on NCI-H226 lung it was 27 µM; in the test with SNB-19 CNS, 7.4 µM.
For `Cn1cc(CO)c2ccccc21`, the GI50 in the test with ACHN renal was greater than 100 µM; in the test with BT-549 breast, 53.7 µM; with HCT-116 colon, 26.9 µM; in the test with HCT-15 colon it was 22.4 µM; in the test with HT29 colon, 30.2 µM; with IGROV1 ovarian it was 10.9 µM. The GI50 is 3.45 µM in the test on MDA-MB-435, 40 µM in the test on MOLT-4 leukemia, 64.1 µM in the test with NCI-H226 lung and greater than 100 µM in the test with SNB-19 CNS. In addition, the TGI with ACHN renal, with BT-549 breast, with HCT-116 colon, in the test with HCT-15 colon, in the test on HT29 colon and in the test on IGROV1 ovarian was greater than 100 µM each time. Besides, the TGI in the test with MDA-MB-435 was 21 µM; in the test with MOLT-4 leukemia, greater than 100 µM; in the test on NCI-H226 lung it was greater than 100 µM; in the test on SNB-19 CNS, greater than 100 µM.

These data come from PubChem BioAssay (NCI).
